From patent US9708340B2, “Urea derivatives and their use as fatty-acid binding protein (FABP) inhibitors” (Hoffmann-La Roche Inc., priority 2013, dated 2017)
Where two headings read alike, the source gives them in different places.

Experiments:
human FABP4 (huFABP4) = human FABP4 (huFABP4) (Homo sapiens (Human), UniProt P15090); assay: Tb TR-FRET assay, binding of Bodipy labeled fatty acid to His6 tagged huFABP4; settings: read-out: IC50 h-fabp4-ecoli-r
human FABP5 (huFABP5) = human FABP5 (huFABP5) (Homo sapiens (Human), UniProt Q01469); assay: Tb TR-FRET assay, binding of Bodipy labeled fatty acid to His6 tagged huFABP5; settings: read-out: IC50 h-fabp5-ecoli-r
[1] = 50 nM FABP protein, […] Bodipy labeled fatty acid

human FABP5 (huFABP5), sequence (Q01469 whole entry): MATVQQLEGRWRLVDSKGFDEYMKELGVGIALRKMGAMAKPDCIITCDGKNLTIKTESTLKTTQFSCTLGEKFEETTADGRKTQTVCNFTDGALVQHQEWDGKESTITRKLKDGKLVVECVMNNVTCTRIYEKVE
human FABP4 (huFABP4), sequence (P15090 whole entry): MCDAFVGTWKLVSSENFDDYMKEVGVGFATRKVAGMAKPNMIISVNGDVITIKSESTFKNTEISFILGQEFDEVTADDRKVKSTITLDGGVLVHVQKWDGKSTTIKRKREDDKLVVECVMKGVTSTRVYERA

| Structure (SMILES) | IC50 (human FABP4 (huFABP4); [1]) [µM] | IC50 (human FABP5 (huFABP5); [1]) [µM] | IC50 (human FABP4 (huFABP4)) [µM] | IC50 (human FABP5 (huFABP5)) [µM] |
| --- | --- | --- | --- | --- |
| Cc1cc(-c2ccccc2)c(NC(=O)N2CC[C@@H]2C(=O)O)cc1Cl [Example 31, (R)-1-(4-chloro-5-methylbiphenyl-2-ylcarbamoyl)azetidine-2-carboxylic acid] | 0.03 | 5.08 | – | – |
| N#Cc1ccc(-c2ccccc2)c(NC(=O)N2CCC[C@@H]2C(=O)O)c1 [Example 20, (R)-1-(4-cyanobiphenyl-2-ylcarbamoyl)pyrrolidine-2-carboxylic acid] | 10.5 | > 50 | – | – |
| O=C(O)[C@H]1CCN1C(=O)Nc1cc(Cl)ccc1-c1cc(F)cc(F)c1 [Example 39, (R)-1-(4-chloro-3′,5′-difluorobiphenyl-2-ylcarbamoyl)azetidine-2-carboxylic acid] | 0.06 | > 50 | – | – |
| O=C(O)[C@H]1CCN1C(=O)Nc1ccccc1-c1ccccc1 [Example 28, (R)-1-(biphenyl-2-ylcarbamoyl)azetidine-2-carboxylic acid] | 0.08 | > 50 | – | – |
| O=C(O)[C@H]1CCN1C(=O)Nc1cc(Cl)ccc1-c1cccc(F)c1 [Example 38, (R)-1-(4-chloro-3′-fluorobiphenyl-2-ylcarbamoyl)azetidine-2-carboxylic acid] | 0.03 | > 50 | – | – |
| O=C(O)[C@H]1CCCN1C(=O)Nc1cc(F)ccc1-c1ccccc1 [Example 16, (R)-1-(4-fluorobiphenyl-2-ylcarbamoyl)pyrrolidine-2-carboxylic acid] | 1.07 | > 50 | – | – |
| O=C(O)[C@H]1CCCN1C(=O)Nc1cc(Cl)ccc1-c1cccc(Cl)c1 [Example 55, (R)-1-(3′,4-dichlorobiphenyl-2-ylcarbamoyl)pyrrolidine-2-carboxylic acid] | 0.77 | > 50 | – | – |
| O=C(O)C1SCCN1C(=O)Nc1ccccc1-c1ccccc1 (centres unmarked) [Example 7, 3-(Biphenyl-2-ylcarbamoyl)-thiazolidine-2-carboxylic acid] | 9.82 | > 50 | – | – |
| O=C(O)[C@H]1CCN1C(=O)Nc1cc(Cl)ccc1-c1ccc(F)cc1 [Example 29, (R)-1-(4-chloro-4′-fluorobiphenyl-2-ylcarbamoyl)azetidine-2-carboxylic acid] | 0.03 | > 50 | – | – |
| O=C(O)[C@H]1CSCN1C(=O)Nc1ccccc1-c1ccccc1 [Example 8, (S)-3-(Biphenyl-2-ylcarbamoyl)-thiazolidine-4-carboxylic acid] | 0.33 | > 50 | – | – |
| O=C(O)[C@@H]1[C@H]2C[C@H]2CN1C(=O)Nc1ccccc1-c1ccccc1 (racemic) [Example 9, (1SR,2SR,5RS)-3-(Biphenyl-2-ylcarbamoyl)-3-aza-bicyclo[3.1.0]hexane-2-carboxylic acid] | – | – | 9.1 | > 50 |
| C=CCc1cc(Cl)cc(NC(=O)N2CCC[C@@H]2C(=O)O)c1-c1ccccc1 [Example 23, (R)-1-(6-allyl-4-chlorobiphenyl-2-ylcarbamoyl)pyrrolidine-2-carboxylic acid] | 0.11 | 1.29 | – | – |
| O=C(O)C1CCCCN1C(=O)Nc1ccccc1-c1ccccc1 (centres unmarked) [Example 1, 1-(Biphenyl-2-ylcarbamoyl)-piperidine-2-carboxylic acid] | 8.06 | > 50 | – | – |
| O=C(O)[C@@H]1CCN1C(=O)Nc1cc(Cl)ccc1-c1ccccc1 [Example 27, (S)-1-(4-chlorobiphenyl-2-ylcarbamoyl)azetidine-2-carboxylic acid] | 1.22 | > 50 | – | – |
| O=C(O)[C@H]1CCCN1C(=O)Nc1ccccc1Cc1ccccc1 [Example 4, (R)-1-(2-benzylphenylcarbamoyl)pyrrolidine-2-carboxylic acid] | 3.34 | > 50 | – | – |
| O=C(O)[C@H]1CCCN1C(=O)Nc1cc(OC(F)(F)F)ccc1-c1ccccc1 [Example 17, (R)-1-(4-(trifluoromethoxy)biphenyl-2-ylcarbamoyl)pyrrolidine-2-carboxylic acid] | 5.71 | > 50 | – | – |
